Among the data in patent publication US20110319392A1, “Thiazole Sulfonamide And Oxazole Sulfonamide Kinase Inhibitors” (priority 2009, published 2011) are IC50 values, retold here.

Usually IC50 stands for the concentration that inhibits the measured activity by half.

Molecules are shown by their SMILES. Structures can show the parent of a compound that is named as a salt. Bounds are passed on as bounds.

For one experiment, the target named is B-Raf (Homo sapiens, UniProt P15056). In words: B-Raf Accelerated MEK ATPase assay (BRAMA), Method A or B. It counts as biochemical. The note with it: Method B: final MEK 150 nM, single end point read. An outline of the steps:
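ADP production, initiated by catalytic activated Raf with unphosphorylated MEK, is followed by NADH oxidation through a PK/LDH coupled system. Method B differs from the kinetic Method A by a single end-point read and 150 nM final MEK.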

A further experiment concerns HN5 tumor cells. Put plainly: Cell growth inhibition assay (CellTiter-Glo), HN5. The class given is cell-based, Human. The note with it: Homo sapiens, 72 h; 3 days incubation. An outline of the steps: (§1)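 Cells seeded at 500/well (HN5 and HT-29 in high-glucose DMEM/10% FBS; A375P F11s in RPMI/10% FBS with pyruvate; SK-MEL-3 in McCoy's 5A/15% FBS), then exposed next day to 1:3 serial compound dilutions (0.2% DMSO) for 3 days at 37° C. CellTiter-Glo luminescence measured ATP; IC50 derived by 4-parameter fit.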
A general note: ATP-based viability assays read luminescence as a measure of living cells.

In a further experiment the test system is BT474 tumor cells. In words: Cell growth inhibition assay (CellTiter-Glo), BT474. The class given is cell-based, Human. The conditions noted are these: Homo sapiens, BT-474, 72 h, 3 days incubation.
Another experiment has as its system Colo205 tumor cells. Put plainly: Cell growth inhibition assay (CellTiter-Glo), Colo205. The class given is cell-based, Human. The note with it: Homo sapiens, COLO 205, 72 h; 3 days incubation. In a few lines:
(§2)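 Readout was CellTiter-Glo luminescence (total ATP, surrogate for cell number) after 3-day exposure at 37° C, 5% CO2 to 1:3 serial compound dilutions in 0.2% final DMSO. Seeding was 500 cells/well; IC50 derived by 4-parameter fit relative to vehicle-treated wells.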

Another experiment deals with SK-MEL-28 tumor cells. Put plainly: Cell growth inhibition assay (CellTiter-Glo), SK-MEL-28. The class given is cell-based, Human. The note with it: Homo sapiens, SK-MEL-28, 72 h; 3 days incubation. An outline of the steps:
as §2

A further experiment concerns A375P F11s tumor cells. In words: Cell growth inhibition assay (CellTiter-Glo), A375P F11s. It counts as cell-based, Human. The conditions noted are these: Homo sapiens. An outline of the steps: as §1
In the next experiment the test system is HT-29 tumor cells. Put plainly: Cell growth inhibition assay (CellTiter-Glo), HT-29. It counts as cell-based, Human. The note with it: Homo sapiens. In a few lines: as §1
The next experiment deals with SK-MEL-3 tumor cells. In words: Cell growth inhibition assay (CellTiter-Glo), SK-MEL-3. The class given is cell-based, Human. The conditions noted are these: Homo sapiens, SK-MEL3. In a few lines:
as §1

Chain of B-Raf (P15056 whole entry): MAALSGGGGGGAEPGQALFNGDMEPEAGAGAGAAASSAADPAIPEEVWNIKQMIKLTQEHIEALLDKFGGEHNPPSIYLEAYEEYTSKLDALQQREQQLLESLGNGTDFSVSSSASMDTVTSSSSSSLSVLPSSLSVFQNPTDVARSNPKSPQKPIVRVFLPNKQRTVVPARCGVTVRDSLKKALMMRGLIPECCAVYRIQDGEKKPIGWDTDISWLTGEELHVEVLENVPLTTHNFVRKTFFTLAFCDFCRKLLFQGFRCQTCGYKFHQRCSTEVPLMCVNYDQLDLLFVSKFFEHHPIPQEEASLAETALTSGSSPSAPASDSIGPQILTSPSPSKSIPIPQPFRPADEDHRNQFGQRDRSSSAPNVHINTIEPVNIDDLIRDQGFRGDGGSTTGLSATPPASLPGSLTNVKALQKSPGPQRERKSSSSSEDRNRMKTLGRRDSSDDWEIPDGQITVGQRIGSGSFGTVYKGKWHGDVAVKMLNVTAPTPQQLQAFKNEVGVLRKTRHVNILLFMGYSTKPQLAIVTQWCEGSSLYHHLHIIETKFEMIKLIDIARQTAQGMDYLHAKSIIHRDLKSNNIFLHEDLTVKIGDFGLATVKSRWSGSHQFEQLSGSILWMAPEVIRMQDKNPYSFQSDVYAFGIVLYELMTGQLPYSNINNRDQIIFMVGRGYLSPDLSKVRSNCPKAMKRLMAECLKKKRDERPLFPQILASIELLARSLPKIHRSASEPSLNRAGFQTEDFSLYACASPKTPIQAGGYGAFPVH

For `CC(C)c1nc(-c2cccc(NS(=O)(=O)c3c(F)cccc3F)c2)c(-c2ccnc(Nc3ccc(N4CCN(CCS(C)(=O)=O)CC4)c(F)c3)n2)s1` [Example 16, 2,6-Difluoro-N-{3-[5-{2-[(3-fluoro-4-{4-[2-(methylsulfonyl)ethyl]-1-piperazinyl}phenyl)amino]-4-pyrimidinyl}-2-(1-methylethyl)-1,3-thiazol-4-yl]ohenyl}benzenesulfonamide hydrochloride], the IC50 was under 100 nM against B-Raf; 100 to 1000 nM with HN5 tumor cells; over 1000 nM in the experiment with BT474 tumor cells; under 100 nM with Colo205 tumor cells; under 100 nM in the experiment with SK-MEL-28 tumor cells; under 100 nM in the experiment with A375P F11s tumor cells. In addition, the IC50 with HT-29 tumor cells and with SK-MEL-3 tumor cells was under 100 nM in each case.
In the case of `COc1cc(N2CCC(N3CCN(CCS(C)(=O)=O)CC3)CC2)ccc1Nc1nccc(-c2sc(C(C)C)nc2-c2cccc(NS(=O)(=O)c3c(F)cccc3F)c2)n1` [Example 20, 2,6-Difluoro-N-{3-[2-(1-methylethyl)-5-(2-{[2-(methyloxy)-4-(4-{4-[2-(methylsulfonyl)ethyl]-1-piperazinyl}-1-piperidinyl)phenyl]amino}-4-pyrimidinyl)-1,3-thiazol-4-yl]phenyl}benzenesulfonamide], the IC50 on B-Raf was under 100 nM; in the experiment with HN5 tumor cells it was over 1000 nM; in the experiment with BT474 tumor cells, over 1000 nM; with Colo205 tumor cells it was under 100 nM; with SK-MEL-28 tumor cells it was under 100 nM; in the experiment on A375P F11s tumor cells, 100 to 1000 nM. Besides, the IC50 with HT-29 tumor cells was over 1000 nM; in the experiment with SK-MEL-3 tumor cells, 100 to 1000 nM.
As for `CS(=O)(=O)c1cccc(Nc2nccc(-c3sc(N4CCOCC4)nc3-c3cccc(NS(=O)(=O)c4c(F)cccc4F)c3Cl)n2)c1` [Example 145], the IC50 at B-Raf is under 100 nM; in the experiment on HN5 tumor cells it was over 1000 nM; in the experiment with BT474 tumor cells it was over 1000 nM; in the experiment with Colo205 tumor cells, under 100 nM; in the experiment with SK-MEL-28 tumor cells it was under 100 nM; with A375P F11s tumor cells, under 100 nM. Further, the IC50 with HT-29 tumor cells and in the experiment with SK-MEL-3 tumor cells was under 100 nM each time.
With `CC(C)c1nc(-c2ccc(F)c(NS(=O)(=O)c3c(F)cccc3F)c2)c(-c2ccnc(Nc3ccc(N4CCN5CCOC[C@H]5C4)nc3)n2)s1` [Example 97], the IC50 is under 100 nM at B-Raf; over 1000 nM in the experiment on HN5 tumor cells; over 1000 nM in the experiment with BT474 tumor cells; under 100 nM with Colo205 tumor cells; under 100 nM in the experiment with SK-MEL-28 tumor cells; under 100 nM with A375P F11s tumor cells. For the same molecule, the values for the IC50 in the experiment with HT-29 tumor cells and with SK-MEL-3 tumor cells were over 1000 nM and under 100 nM, respectively.
As to `CC(C)c1nc(-c2ccc(F)c(NS(=O)(=O)c3c(F)cccc3F)c2)c(-c2ccnc(Nc3ccc(N4CCOCC4)nc3)n2)s1` [Example 23, 2,6-Difluoro-N-{2-fluoro-5-[2-(1-methylethyl)-5-(2-{[6-(4-morpholinyl)-3-pyridinyl]amino}-4-pyrimidinyl)-1,3-thiazol-4-yl]phenyl}benzenesulfonamide], the IC50 is under 100 nM against B-Raf; over 1000 nM with HN5 tumor cells; over 1000 nM in the experiment on BT474 tumor cells; under 100 nM in the experiment with Colo205 tumor cells; under 100 nM with SK-MEL-28 tumor cells; under 100 nM with A375P F11s tumor cells. Further, the IC50 in the experiment on HT-29 tumor cells and in the experiment on SK-MEL-3 tumor cells was under 100 nM in each case.
For the molecule `COc1cc(N2CCN(CCS(C)(=O)=O)CC2)c(C)cc1Nc1nccc(-c2sc(C(C)C)nc2-c2cccc(NS(=O)(=O)c3c(F)cccc3F)c2)n1` [Example 19], the IC50 was under 100 nM on B-Raf; over 1000 nM in the experiment on HN5 tumor cells; over 1000 nM in the experiment on BT474 tumor cells; under 100 nM in the experiment with Colo205 tumor cells; 100 to 1000 nM in the experiment with SK-MEL-28 tumor cells; 100 to 1000 nM in the experiment with A375P F11s tumor cells. Moreover, the figures for the IC50 in the experiment on HT-29 tumor cells and with SK-MEL-3 tumor cells were over 1000 nM and 100 to 1000 nM, respectively.
Consider `CC(C)c1nc(-c2ccc(F)c(NS(=O)(=O)c3c(F)cccc3F)c2)c(-c2ccnc(Nc3cccc(CCS(N)(=O)=O)c3)n2)s1` [Example 113], for which the IC50 was under 100 nM against B-Raf; over 1000 nM with HN5 tumor cells; 100 to 1000 nM in the experiment on BT474 tumor cells; 100 to 1000 nM in the experiment on Colo205 tumor cells; 100 to 1000 nM in the experiment with SK-MEL-28 tumor cells; 100 to 1000 nM in the experiment on A375P F11s tumor cells. Further, the values for the IC50 in the experiment on HT-29 tumor cells and in the experiment with SK-MEL-3 tumor cells were over 1000 nM and 100 to 1000 nM, respectively.
Consider `CCNc1nc(-c2cccc(NS(=O)(=O)c3c(F)cccc3F)c2)c(-c2ccnc(Nc3ccc(N4CCOCC4)nc3)n2)s1` [Example 152], for which the IC50 is under 100 nM against B-Raf; 100 to 1000 nM with HN5 tumor cells; 100 to 1000 nM with BT474 tumor cells; under 100 nM in the experiment with Colo205 tumor cells; under 100 nM with SK-MEL-28 tumor cells; under 100 nM in the experiment on A375P F11s tumor cells. For the same molecule, the IC50 in the experiment with HT-29 tumor cells and in the experiment with SK-MEL-3 tumor cells was under 100 nM throughout.
Regarding `COc1ccc(S(=O)(=O)Nc2cccc(-c3nc(C(C)C)sc3-c3ccnc(Nc4ccc(N5CCOCC5)nc4)n3)c2)cn1` [Example 49], the IC50 was under 100 nM on B-Raf; over 1000 nM in the experiment with HN5 tumor cells; over 1000 nM with BT474 tumor cells; under 100 nM with Colo205 tumor cells; under 100 nM in the experiment with SK-MEL-28 tumor cells; under 100 nM in the experiment on A375P F11s tumor cells. Moreover, the IC50 in the experiment with HT-29 tumor cells and with SK-MEL-3 tumor cells was under 100 nM each time.
For `CC(C)c1nc(-c2ccnc(NS(=O)(=O)c3c(F)cccc3F)c2)c(-c2ccnc(Nc3cnc(N4CCOCC4)c(F)c3)n2)s1` [Example 33], the IC50 on B-Raf is under 100 nM; in the experiment with HN5 tumor cells, over 1000 nM; with BT474 tumor cells, over 1000 nM; in the experiment on Colo205 tumor cells it was under 100 nM; in the experiment on SK-MEL-28 tumor cells it was under 100 nM; in the experiment on A375P F11s tumor cells, under 100 nM. For the same molecule, the IC50 in the experiment with HT-29 tumor cells was 100 to 1000 nM; with SK-MEL-3 tumor cells, under 100 nM.
